Assay results reported in the supplement of paper PMC12592484.

What was measured:
Experiment in all cases: drug sensitivity score (DSS2, normalised partial AUC of dose-response, 72 h CellTiter-Glo viability) (DSS (dimensionless)); higher = more sensitive (stronger growth inhibition / cytotoxicity); extreme values may be limits of the assay
22Rv1 = tested on: 22Rv1
Outline: (§1)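 Cells were added to 384-well plates already holding compounds at five doses over a 10,000-fold range: low-passage primary prostate cancer-associated fibroblasts, PF179T, WPMY-1, LNCaP and 22Rv1. Viability was measured 72 h later by CellTiter-Glo 2.0 luminescence and scaled to vehicle and positive-control wells. The drug sensitivity score, computed in BREEZE, is a partial area under the fitted logistic dose–response curve divided by the log of its upper asymptote, with higher scores meaning greater sensitivity.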

CAF#1 = tested on: CAF#1 (primary prostate cancer-associated fibroblasts of myCAF-like type)
Outline: as §1

CAF#2 = tested on: CAF#2 (primary prostate cancer-associated fibroblasts of iCAF-like type)
Outline: as §1

CAF#3 = tested on: CAF#3 (primary prostate cancer-associated fibroblasts of myCAF-like type)
Outline: as §1

CAF#4 = tested on: CAF#4 (primary prostate cancer-associated fibroblasts of iCAF-like type)
Outline: as §1

CAF#5 = tested on: CAF#5 (primary prostate cancer-associated fibroblasts of myCAF-like type)
Outline: as §1

CAF#6 = tested on: CAF#6 (primary prostate cancer-associated fibroblasts of iCAF-like type)
Outline: as §1

CAF#7 = tested on: CAF#7 (primary prostate cancer-associated fibroblasts of myCAF-like type)
Outline: as §1

LNCAP = tested on: LNCAP
Outline: as §1

PF179T = tested on: PF179T
Outline: as §1

WPMY-1 = tested on: WPMY-1
Outline: as §1

Structure (SMILES) | drug sensitivity score (22Rv1) | drug sensitivity score (CAF#1) | drug sensitivity score (CAF#2) | drug sensitivity score (CAF#3) | drug sensitivity score (CAF#4) | drug sensitivity score (CAF#5) | drug sensitivity score (CAF#6) | drug sensitivity score (CAF#7) | drug sensitivity score (LNCAP) | drug sensitivity score (PF179T) | drug sensitivity score (WPMY-1)
O=c1[nH]c(=O)n([C@H]2C[C@H](O)[C@@H](CO)O2)cc1F [Floxuridine] (tested concentration range 1-10000 nM) | 6 | 1.8 | 4.3 | 1.1 | 2 | 1.4 | 2.3 | 3 | 15.2 | 5.1 | 24
Nc1nc(F)nc2c1ncn2[C@@H]1O[C@H](CO)[C@@H](O)[C@@H]1O [Fludarabine] (tested concentration range 1-10000 nM) | 0 | 1.5 | 0.7 | 0 | 0.3 | 2.2 | 0.1 | 2.1 | 5.5 | 4.3 | 0.7
O=c1[nH]cc(F)c(=O)[nH]1 [Fluorouracil] (tested concentration range 1-10000 nM) | 2.4 | 2.6 | 3.6 | 0.5 | 2 | 2.9 | 1.6 | 2.1 | 4.6 | 3.4 | 0.2
CC(C)C(=O)Nc1ccc([N+](=O)[O-])c(C(F)(F)F)c1 [Flutamide] (tested concentration range 1-10000 nM) | 0.6 | 0 | 2.8 | 0 | 4.8 | 0.5 | 0 | 0 | 1.1 | 0 | 0
COc1cc2c(Oc3ccc(NC(=O)C4(C(=O)Nc5ccc(F)cc5)CC4)cc3F)ccnc2cc1OCCCN1CCOCC1 [Foretinib] (tested concentration range 0.1-1000 nM) | 3.4 | 6.8 | 10.3 | 7.9 | 6.9 | 6.7 | 5.2 | 7 | 5.6 | 6.8 | 7.9
COc1cc(Nc2ncc(F)c(Nc3ccc4c(n3)N(COP(=O)(O)O)C(=O)C(C)(C)O4)n2)cc(OC)c1OC [Fostamatinib] (tested concentration range 0.2-2500 nM) | 0 | 7.7 | 8.4 | 6.6 | 5.3 | 7.2 | 5.6 | 7 | 4.4 | 7.3 | 4.4
C[C@]12CC[C@@H]3c4ccc(O)cc4C[C@@H](CCCCCCCCC[S+]([O-])CCCC(F)(F)C(F)(F)F)[C@H]3[C@@H]1CC[C@@H]2O (stereo partly specified) [Fulvestrant] (tested concentration range 0.1-1000 nM) | 0 | 0 | 0 | 0.2 | 0 | 0 | 0.1 | 0 | 0.3 | 0 | 0
CNc1nc(Nc2cn(C(C)(C)C#N)nc2C)ncc1C(F)(F)F [GNE-0877] (tested concentration range 0.1-1000 nM) | 0 | 0 | 0 | 0 | 0 | 0 | 0 | 0 | 0 | 0 | 0
CCCOc1ccn2c(C(C)=O)cc(-c3ccccc3S(C)(=O)=O)c2c1 [GSK2801] (tested concentration range 1-10000 nM) | 0 | 0 | 0 | 0 | 0 | 0.4 | 0 | 0 | 1.2 | 0 | 0
CCOC(=O)CCNc1cc(N2CCc3ccccc3CC2)nc(-c2ccccn2)n1 [GSK-J4] (tested concentration range 10-100000 nM) | 2.1 | 2.1 | 4.3 | 0.6 | 3.7 | 0.3 | 0 | 0 | 3.5 | 0.3 | 0.5
Cc1cccc(-c2nn3c(c2-c2ccnc4ccc(C(N)=O)cc24)CCC3)n1 [Galunisertib] (tested concentration range 0.1-1000 nM) | 0 | 0 | 0 | 0.1 | 0 | 0 | 0 | 0 | 0 | 0 | 0
CC(C)c1cc(-c2n[nH]c(=O)n2-c2ccc3c(ccn3C)c2)c(O)cc1O [Ganetespib] (tested concentration range 0.1-1000 nM) | 23.9 | 24.1 | 20.3 | 16.9 | 18.3 | 22.3 | 14.3 | 15.9 | 21.9 | 20.9 | 24.3
CN(C)C1CCN(C(=O)c2ccc(NC(=O)Nc3ccc(-c4nc(N5CCOCC5)nc(N5CCOCC5)n4)cc3)cc2)CC1 [Gedatolisib] (tested concentration range 0.1-1000 nM) | 22.5 | 5.9 | 5.1 | 8.9 | 5.6 | 9.8 | 10.9 | 13.1 | 19.8 | 8.1 | 14.8
COc1cc2ncnc(Nc3ccc(F)c(Cl)c3)c2cc1OCCCN1CCOCC1 [Gefitinib] (tested concentration range 1-10000 nM) | 3.9 | 0 | 2 | 0.2 | 2.8 | 0.5 | 0.2 | 0.2 | 2.6 | 1.7 | 2.1
Nc1ccn([C@@H]2O[C@H](CO)[C@@H](O)C2(F)F)c(=O)n1 [Gemcitabine] (tested concentration range 0.1-1000 nM) | 20.9 | 3.1 | 10 | 3.9 | 8 | 5.6 | 4.4 | 7.2 | 16.4 | 18 | 22.5
CCc1nc(C(N)=O)c(Nc2ccc(N3CCC(N4CCN(C)CC4)CC3)c(OC)c2)nc1NC1CCOCC1 [Gilteritinib] (tested concentration range 0.1-1000 nM) | 1.7 | 0.3 | 0 | 0 | 0 | 0.1 | 0 | 0 | 0 | 1.3 | 5.2
CCN(CC)Cc1ccc2cc(COC(=O)Nc3ccc(C(=O)NO)cc3)ccc2c1 [Givinostat] (tested concentration range 0.1-1000 nM) | 9.8 | 2.4 | 4.2 | 1.8 | 2.3 | 4.9 | 3.6 | 3.1 | 9.3 | 3.9 | 11.4
CN1CC[C@@H](NC(=O)Nc2ccc(C#N)cc2)C[C@@H]1c1nc2ccccc2[nH]1 [Glasdegib] (tested concentration range 0.1-1000 nM) | 0 | 0 | 0 | 0.1 | 0 | 0 | 0.3 | 0 | 0 | 0 | 0
COCCNCc1ccc(-c2cc3nccc(Oc4ccc(NC(=S)NC(=O)Cc5ccc(F)cc5)cc4F)c3s2)nc1 [Glesatinib] (tested concentration range 0.2-2500 nM) | 1.4 | 5.6 | 5.1 | 4.4 | 5.7 | 4.3 | 3.4 | 4.2 | 1.3 | 3.4 | 2.5
CC(C)C[C@H](NC(=O)[C@@H](COC(C)(C)C)NC(=O)[C@H](Cc1ccc(O)cc1)NC(=O)[C@H](CO)NC(=O)[C@H](Cc1c[nH]c2ccccc12)NC(=O)[C@H](Cc1cnc[nH]1)NC(=O)[C@@H]1CCC(=O)N1)C(=O)N[C@@H](CCCNC(=N)N)C(=O)N1CCC[C@H]1C(=O)NNC(N)=O [Goserelin] (tested concentration range 1-10000 nM) | 0 | 0 | 0 | 0 | 0 | 0.2 | 0.6 | 0 | 0 | 0 | 0
O=S(=O)(c1cccc2c(O)nccc12)N1CCCNCC1 [Hydroxyfasudil] (tested concentration range 1.9-19000 nM) | 0 | 0 | 0 | 0 | 0 | 0 | 0 | 0 | 0 | 0 | 0.3
NC(=O)NO [Hydroxyurea] (tested concentration range 100-1000000 nM) | 3.8 | 1.9 | 5.5 | 0.5 | 0.2 | 2.5 | 0 | 0 | 4.6 | 2.4 | 5
O=C(O)c1ccc(O)c2ncccc12 [IOX-1] (tested concentration range 10-100000 nM) | 0.9 | 0.1 | 1.7 | 0.3 | 2.6 | 0.8 | 0.8 | 0.4 | 6.9 | 3.9 | 0.8
O=C(O)CNC(=O)c1c(O)c2ccccc2n(Cc2ccccc2)c1=O [IOX-2] (tested concentration range 2.5-25000 nM) | 0 | 0 | 0 | 0 | 0 | 0 | 0 | 0 | 0 | 0 | 0
C=CC(=O)N1CCC[C@@H](n2nc(-c3ccc(Oc4ccccc4)cc3)c3c(N)ncnc32)C1 [Ibrutinib] (tested concentration range 0.1-1000 nM) | 0 | 0.1 | 0 | 0.2 | 0 | 0.7 | 0 | 0 | 0 | 0 | 0
C#Cc1cccc(Nc2ncnc3cc4c(cc23)OCCOCCOCCO4)c1 [Icotinib] (tested concentration range 1-10000 nM) | 0.7 | 0.3 | 0 | 2.3 | 0 | 0 | 0 | 0 | 0 | 0 | 0
